Results on 16 compounds are retold here after US20250346592A1 (Celgene Corporation, priority 2022, published 2025).

The target in the experiment is hPAD4 enzyme (Homo sapiens (Human), UniProt Q9UM07). In words: RFMS1 assay (RapidFire mass spectrometry, BAEE substrate). In kind it is biochemical. Conditions: 5 nM hPAD4, 250 μM BAEE, 30 min preincubation at 37° C., 90 min reaction; read-out: RFMS 1 IC50. How it is done: Compounds were solubilized in 100% DMSO to achieve a 10 mM compound concentration. Compound stock solutions were stored at RT. A series of dilutions were prepared in DMSO and mixed 8 times with 20 μL mixing volume. Final top concentration of compound in the assay is 50 μM. Final assay conditions were as follows: • Reaction volume: 26 μl • Assay buffer: 25 mM hepes, pH 7.5, 5 mM NaCl, 1 mM DTT, 0.2 mg/ml BSA, 0.01% CHAPS, 50 µM Calcium, and 5 μM TPEN • Final concentrations: 5 nM hPAD4 enzyme, 250 µM BAEE, and 0.5% DMSO • Total incubation time: 30 mins compound and enzyme preincubation at 37° C., 90 min enzyme/substrate reaction, 30 min reaction with phenyl glyoxal at 37° C. • Stop solution: 40 μl 5% TCA in ACN • 0.13 μL of compound solution was added to 13 μL of 10 nM PAD4 in assay buffer. After […] min 13 μl of 500 µM of BAEE was added in 25 mM hepes, pH 7.5, 5 mM NaCl, 1 mM DTT, 0.2 mg/ml BSA, 0.01% CHAPS, 50 μM Calcium, 5 μM TPEN was added and the reaction incubated for 90 min at 37° C. The enzymatic reaction was quenched by addition of 15 μl of 6.1N TCA, 100% Final Concentration is 20%, 35 μl of 8.5 mM phenyl glyoxal (final concentration 4 mM) is then added and the reaction is incubated for 30 min at 37° C.
hPAD4 enzyme, sequence (Q9UM07 whole entry): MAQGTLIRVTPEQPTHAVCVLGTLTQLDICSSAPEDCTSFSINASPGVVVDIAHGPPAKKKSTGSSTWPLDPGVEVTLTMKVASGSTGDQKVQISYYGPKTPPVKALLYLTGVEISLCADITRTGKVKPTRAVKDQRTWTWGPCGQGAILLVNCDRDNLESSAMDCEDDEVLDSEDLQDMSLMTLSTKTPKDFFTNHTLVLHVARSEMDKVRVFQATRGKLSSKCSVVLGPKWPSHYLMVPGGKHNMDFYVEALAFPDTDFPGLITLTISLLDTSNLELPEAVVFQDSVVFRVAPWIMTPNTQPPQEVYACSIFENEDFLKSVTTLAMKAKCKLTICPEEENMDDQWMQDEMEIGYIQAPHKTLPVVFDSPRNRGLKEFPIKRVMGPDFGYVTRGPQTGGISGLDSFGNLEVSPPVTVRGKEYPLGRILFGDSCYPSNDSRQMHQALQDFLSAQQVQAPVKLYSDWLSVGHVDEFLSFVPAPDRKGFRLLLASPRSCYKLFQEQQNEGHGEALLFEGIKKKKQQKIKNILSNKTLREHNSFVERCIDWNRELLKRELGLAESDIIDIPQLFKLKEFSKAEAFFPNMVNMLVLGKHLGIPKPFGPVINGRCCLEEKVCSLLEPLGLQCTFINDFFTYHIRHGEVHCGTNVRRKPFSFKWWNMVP
After 30 minutes the plates are spun down to remove all precipitate. The enzyme reaction was quenched with an equal volume of methanol containing internal standard (modified citrulline). Samples were loaded onto the Rapid Fire RF300 system (Agilent) wherein they were first sipped for 1000 ms and then directly loaded to a C18 separations cartridge using a mixture of acetonitrile containing 0.01% formic acid for 3000 ms desalting. The flow rate of the mobile phase was 1.5 ml/min. Once the samples were eluted from the cartridge, a mobile phase of acetonitrile containing 0.01% formic acid was used to move the samples into the mass spectrometer for 4000 ms at a flow rate of 1.25 ml/min/Sciex API5500 triple quadrupole mass spectrometer (Applied Biosystems) equipped with ESI was used to analyze the peptidyl citrulline and internal standard ions.
MRM transition of product and internal standard were monitored at m/z 424.5 to 350.4 and m/z 293 to 247 respectively. The dwell time for each transition was set at 200 ms, and the ESI voltage was used at 5500 with a source temperature of 400° C. Extracted ion peaks for each transition were integrated using the Rapid Fire Integrator software. Peak area of analyte was normalized with internal standard.).
Compounds having an activity designated as “A” provided an IC50≤10 nM; compounds having an activity designated as “B” provided an IC50 11-100 nM; compounds having an activity designated as “C” provided an IC50 101-500 nM; compounds having an activity designated as “D” provided an IC50 501-1000 nM; compounds having an activity designated as “E” provided an IC50>1000 nM.
In general, IC50 refers to the concentration that inhibits the measured activity by half. Consider `Cn1c(-c2cc3cccc(OC(F)Cn4ccnc4)c3n2CC2CC2)nc2cc3c(cc21)CCN(C[C@H](N)CF)C3=O` (single isomer, unassigned) [Example 226a], for which the IC50 was no more than 10 nM.
For the compound `Cc1cc(N2CCCS2(=O)=O)ccc1-c1ccc2cc(-c3nc4cc5c(cc4n3C)CCN(C[C@H](N)CF)C5=O)n(CC3CC3)c2n1` [Example 57, (S)-6-(2-amino-3-fluoropropyl)-2-(1-(cyclopropylmethyl)-6-(4-(1,1-dioxidoisothiazolidin-2-yl)-2-methylphenyl)-1H-pyrrolo[2,3-b]pyridin-2-yl)-1-methyl-1,6,7,8-tetrahydro-5H-imidazo[4,5-g]isoquinolin-5-one], the IC50 is 11 to 100 nM.
For `Cc1cc(N2CC(C)(C)OC2=O)ccc1-c1ccc2cc(-c3nc4cc5c(cc4n3C)CCN(C[C@H](N)CF)C5=O)n(CC3CC3)c2n1` [Example 58, (S)-3-(4-(2-(6-(2-amino-3-fluoropropyl)-1-methyl-5-oxo-5,6,7,8-tetrahydro-1H-imidazo[4,5-g]isoquinolin-2-yl)-1-(cyclopropylmethyl)-1H-pyrrolo[2,3-b]pyridin-6-yl)-3-methylphenyl)-5,5-dimethyloxazolidin-2-one] the value was 11 to 100 nM; for `CCc1nc(N2CCOC2=O)ccc1-c1ccc2cc(-c3nc4cc5c(cc4n3C)CCN(C[C@H](N)CF)C5=O)n(CC3CC3)c2n1` [Example 61, (S)-3-(5-(2-(6-(2-amino-3-fluoropropyl)-1-methyl-5-oxo-5,6,7,8-tetrahydro-1H-imidazo[4,5-g]isoquinolin-2-yl)-1-(cyclopropylmethyl)-1H-pyrrolo[2,3-b]pyridin-6-yl)-6-ethylpyridin-2-yl)oxazolidin-2-one], 11 to 100 nM; for `COc1cccc2cc(-c3nc4cc5c(cc4n3C)CCN(C[C@H](N)CF)C5=O)n(CCOC(F)F)c12` [Example 135, (S)-6-(2-amino-3-fluoropropyl)-2-(1-(2-(difluoromethoxy)ethyl)-7-methoxy-1H-indol-2-yl)-1-methyl-1,6,7,8-tetrahydro-5H-imidazo[4,5-g]isoquinolin-5-one], 11 to 100 nM.
Then `C[C@H](COc1cccc2cc(-c3nc4cc5c(cc4n3C)CCN(C[C@H](N)CF)C5=O)n(CC3CC3)c12)n1cnc(F)c1` [Example 217, 6-((S)-2-amino-3-fluoropropyl)-2-(1-(cyclopropylmethyl)-7-((R)-2-(4-fluoro-1H-imidazol-1-yl)propoxy)-1H-indol-2-yl)-1-methyl-1,6,7,8-tetrahydro-5H-imidazo[4,5-g]isoquinolin-5-one], with no more than 10 nM; and `C[C@H](COc1cccc2cc(-c3nc4cc5c(cc4n3C)CCN(C[C@@H](C)N)C5=O)n(CC3CC3)c12)n1cnc(F)c1` [Example 230, 6-((R)-2-aminopropyl)-2-(1-(cyclopropylmethyl)-7-((R)-2-(4-fluoro-1H-imidazol-1-yl)propoxy)-1H-indol-2-yl)-1-methyl-1,6,7,8-tetrahydro-5H-imidazo[4,5-g]isoquinolin-5-one], with no more than 10 nM.
As to `COc1cccc2cc(-c3nc4cc5c(cc4n3C)CCN(C[C@H]3COCCN3)C5=O)n(CCOC(F)F)c12` [Example 233, (S)-2-(1-(2-(difluoromethoxy)ethyl)-7-methoxy-1H-indol-2-yl)-1-methyl-6-(morpholin-3-ylmethyl)-1,6,7,8-tetrahydro-5H-imidazo[4,5-g]isoquinolin-5-one], the IC50 lay in the range of 101 to 500 nM.
Regarding `C[C@H](COc1cccc2cc(-c3nc4cc5c(cc4n3C)CCN(C[C@H]3COCCN3)C5=O)n(CC3CC3)c12)n1cnc(F)c1` [Example 235, 2-(1-(cyclopropylmethyl)-7-((R)-2-(4-fluoro-1H-imidazol-1-yl)propoxy)-1H-indol-2-yl)-1-methyl-6-(((S)-morpholin-3-yl)methyl)-1,6,7,8-tetrahydro-5H-imidazo[4,5-g]isoquinolin-5-one], the IC50 is no more than 10 nM.
Then `COc1cccc2cc(-c3nc4cc5c(c(F)c4n3C)CCN(C[C@H]3COCCN3)C5=O)n(CC3CC3)c12` [Example 240, (S)-2-(1-(cyclopropylmethyl)-7-methoxy-1H-indol-2-yl)-9-fluoro-1-methyl-6-(morpholin-3-ylmethyl)-1,6,7,8-tetrahydro-5H-imidazo[4,5-g]isoquinolin-5-one], with 101 to 500 nM; and `C[C@H](COc1cccc2cc(-c3nc4cc5c(c(F)c4n3C)CCN(C[C@H](N)CF)C5=O)n(CC3CC3)c12)n1cnc(F)c1` [Example 241, 6-((S)-2-amino-3-fluoropropyl)-2-(1-(cyclopropylmethyl)-7-((R)-2-(4-fluoro-1H-imidazol-1-yl)propoxy)-1H-indol-2-yl)-9-fluoro-1-methyl-1,6,7,8-tetrahydro-5H-imidazo[4,5-g]isoquinolin-5-one], with no more than 10 nM.
With `C[C@H](COc1cccc2cc(-c3nc4cc5c(c(F)c4n3C)CCN(C[C@H]3COCCN3)C5=O)n(CC3CC3)c12)n1cnc(F)c1` [Example 242, 2-(1-(cyclopropylmethyl)-7-((R)-2-(4-fluoro-1H-imidazol-1-yl)propoxy)-1H-indol-2-yl)-9-fluoro-1-methyl-6-(((S)-morpholin-3-yl)methyl)-1,6,7,8-tetrahydro-5H-imidazo[4,5-g]isoquinolin-5-one], the IC50 is no more than 10 nM.
Then `CC(=O)N1CCC(c2cccc3cc(-c4nc5cc6c(cc5n4C)CCN(C[C@H]4COCCN4)C6=O)n(CC4CC4)c23)CC1` [Example 243, (S)-2-(7-(1-acetylpiperidin-4-yl)-1-(cyclopropylmethyl)-1H-indol-2-yl)-1-methyl-6-(morpholin-3-ylmethyl)-1,6,7,8-tetrahydro-5H-imidazo[4,5-g]isoquinolin-5-one], with 11 to 100 nM.
Then `COCC(=O)N1CCC(c2cccc3cc(-c4nc5cc6c(cc5n4C)CCN(C[C@H]4COCCN4)C6=O)n(CC4CC4)c23)CC1` [Example 244, (S)-2-(1-(cyclopropylmethyl)-7-(1-(2-methoxyacetyl)piperidin-4-yl)-1H-indol-2-yl)-1-methyl-6-(morpholin-3-ylmethyl)-1,6,7,8-tetrahydro-5H-imidazo[4,5-g]isoquinolin-5-one], with 11 to 100 nM.
For `Cc1cc(C(N)=O)c(F)cc1-c1ccc2cc(-c3nc4cc5c(cc4n3C)CCN(C[C@H]3COCCN3)C5=O)n(CC3CC3)c2n1` [Example 245, (S)-4-(1-(cyclopropylmethyl)-2-(1-methyl-6-(morpholin-3-ylmethyl)-5-oxo-5,6,7,8-tetrahydro-1H-imidazo[4,5-g]isoquinolin-2-yl)-1H-pyrrolo[2,3-b]pyridin-6-yl)-2-fluoro-5-methylbenzamide] the value was 101 to 500 nM; for `Cc1cc(N2CCCS2(=O)=O)ccc1-c1ccc2cc(-c3nc4cc5c(cc4n3C)CCN(C[C@H]3COCCN3)C5=O)n(CC3CC3)c2n1` [Example 246, (S)-2-(1-(cyclopropylmethyl)-6-(4-(1,1-dioxidoisothiazolidin-2-yl)-2-methylphenyl)-1H-pyrrolo[2,3-b]pyridin-2-yl)-1-methyl-6-(morpholin-3-ylmethyl)-1,6,7,8-tetrahydro-5H-imidazo[4,5-g]isoquinolin-5-one], 11 to 100 nM.
